{
  "source": "patent US4794123A",
  "about": "“Thiazolo- and thiazino- benzimidazoles and their use as anti-ulcer agents” (John Wyeth & Brother Limited, priority 1983, dated 1988)",
  "test_system": "rabbit isolated gastric glands",
  "test": "aminopyrine accumulation in rabbit isolated gastric glands (anti-secretory activity, H+/K+ ATPase inhibitors)",
  "type": "cell-based",
  "details": "10^-4 M, % inhibition of the maximum response to the secretagogue; for inhibition at 100 µM: Oryctolagus cuniculus",
  "method": "Compounds of formula I were tested for anti-secretory activity by their ability to inhibit the highly specific proton transporting enzyme H^+ /K^+ ATPase.\nPotential H^+ /K^+ ATPase inhibitors were evaluated by a technique involving the measurements of aminopyrine accumulation in rabbit isolated gastric glands. Aminopyrine accumulates in acid-secreting cells; therefore, uptake of aminopyrine is increased by secretagogues and an inhibitor of acid secretion will reduce the response to one or more secretagogues depending upon its site of action. […] The following test procedure is used:\nRabbit gastric glands are isolated from gastric mucosa from the corpus region of the stomach by a method based on one described by Berglindh T., Obrink, K. J., Acta Physiol. Scand.\nResults are expressed as the % inhibition of the maximum response to the secretagogue induced by the test compound. An inhibitor of H^+ /K^+ ATPase would be expected to reduce the response to both secretagogues.",
  "key": {"[1]": {"details": "14C-aminopyrine uptake stimulated by DBcAMP, read-out: % Inhibition to stimulation by DBcAMP"}, "[2]": {"details": "14C-aminopyrine uptake stimulated by high K+, read-out: % Inhibition to stimulation by K+"}},
  "note": "Where two headings read alike, the source gives them in different places.",
  "data": [
    {"compound": "6-Ethoxy-2-(2-pyridyl)thiazolo[3,2-a]-benzimidazole and 7-ethoxy-2-(2-pyridyl)thiazolo[3,2-a]benzimidazole", "values": [
      {"measurement": "% Inhibition to stimulation by DBcAMP", "setting": "14C-aminopyrine uptake stimulated by DBcAMP", "result": 68, "unit": "%"},
      {"measurement": "% Inhibition to stimulation by K+", "setting": "14C-aminopyrine uptake stimulated by high K+", "result": 162, "unit": "%"}
    ]},
    {"compound": "CCc1ccc(-c2cn3c(nc4ccccc43)s2)nc1", "note": "[2-(2-(5-Ethylpyridyl))thiazolo[3,2-a]-benzaimidazole]", "values": [
      {"measurement": "inhibition at 100 µM", "setting": "[1]", "result": 56, "unit": "%"},
      {"measurement": "inhibition at 100 µM", "setting": "[2]", "result": 142, "unit": "%"}
    ]},
    {"compound": "c1ccc(-c2cccc(-c3cn4c(nc5ccccc54)s3)n2)cc1", "note": "[2-[2-(6-Phenylpyridyl)]thiazolo[3,2-a]benzimidazole]", "values": [
      {"measurement": "inhibition at 100 µM", "setting": "[1]", "result": 22, "unit": "%"},
      {"measurement": "inhibition at 100 µM", "setting": "[2]", "result": 381, "unit": "%"}
    ]}
  ]
}
